The values below come from patent US20230090708A1, “METHODS AND COMPOSITIONS FOR THE TREATMENT OF HEMANGIOMA” (MASSEY VENTURES LIMITED, priority 2020, published 2023).

The subject of series [1] is proliferating hemangioma cells. Briefly: Experiment 7: different ACEi and beta blockers on one primary cell line, MTT. The class given is cell-based, human. Conditions: for Results Summary: 72 hours, one cell line; for inhibition at 1 µM / inhibition at 10 µM: Homo sapiens, 72 h, read-out: Inhibition vs. Cells + Adjuvant at 72 Hours. The protocol: (§1) An in vitro cell culture model of infantile hemangioma was developed to assess the impact of renin-angiotensin system inhibitors on cellular proliferation. A primary cell line of proliferating infantile hemangioma cells, including haemangioma stem cells, was derived from a tissue biopsy obtained from patients during the proliferating phase of the disease. The primary cell lines are cultured in 25 cm^2 flasks using standard culture media and conditions. The cultured cells are used to seed 96-well plates with a seed cell concentration of 2500 or 5000 cells per well, with additional culture media (200 μL). All studies are performed in triplicate.
The plates are incubated overnight to allow cell adherence to the wells. The wells are photographed to confirm cell adherence and confluency. The appropriate drug(s) to be examined are subsequently added to the wells. […] The media is aspirated from each well and stored frozen for possible future analyses. Media is added to the wells and an MTT determination is undertaken according to standard protocols.
(§2) From the triplicate incubations of each drug concentration at each time, as well as for all controls, the mean±standard deviation is calculated. The net survival (optical density value) is calculated by subtracting the appropriate blank mean value from each cell culture. From the MTT data, the percentage of survival of cells in the presence of each concentration of drug after each time of culturing is determined.
Briefly, cells were seeded in 96-well plates at concentrations of 2500 cells/well in triplicate for each drug and drug combination. […] All plates were performed in triplicate. Beta blockers used in the study were (±)-propranolol, R-propranolol, S-propranolol, timolol, and betaxalol.

Series [2] deals with proliferating IH. The conditions noted are these: cited from earlier work.
Series [3] deals with IH. The conditions noted are these: oral; 30 patients with IH; cited from earlier work.
The test system of series [4] is proliferating IH. Conditions: topical 1% ointments; cited from earlier work.
The test system of series [5] is proliferating infantile haemangioma cells. Put plainly: Example 2: single 100 μM dose on primary haemangioma cell line, MTT. Type of series: cell-based, human. Conditions: for inhibitory effect on haemangioma cell proliferation: 24, 48, 72 hours. The protocol:
(§3) An in vitro cell culture model of infantile hemangioma was developed to assess the impact of renin-angiotensin system inhibitors on cellular proliferation. A primary cell line of proliferating infantile hemangioma cells, including haemangioma stem cells, was derived from a tissue biopsy obtained from patients during the proliferating phase of the disease. The primary cell lines are cultured in 25 cm^2 flasks using standard culture media and conditions. The cultured cells are used to seed 96-well plates with a seed cell concentration of 2500 or 5000 cells per well, with additional culture media (200 μL). All studies are performed in triplicate. The plates are incubated overnight to allow cell adherence to the wells. The wells are photographed to confirm cell adherence and confluency. The appropriate drug(s) to be examined are subsequently added to the wells. After 24 hours, one set of plates (experimental and blank) is stopped. The media is aspirated from each well and stored frozen for possible future analyses. Media is added to the wells and an MTT determination is undertaken according to standard protocols. This is repeated at 48 and 72 hours. From the triplicate incubations of each drug concentration at each time, as well as for all controls, the mean±standard deviation is calculated. The net survival (optical density value) is calculated by subtracting the appropriate blank mean value from each cell culture. From the MTT data, the percentage of survival of cells in the presence of each concentration of drug after each time of culturing is determined. […] This model recapitulates the process of locally administering the drug directly to the hemangioma microenvironment, which is representative of diffusing the drug through skin to reach the target cells.

For series [6], the system named is proliferating infantile hemangioma cells derived from multiple patients (n=5). Briefly: Example 4: single agents and combinations on five patient-derived cell lines, MTT. The class given is cell-based, human. Conditions: for Individual Responders at 72 Hours with ≥30% Inhibition vs. Cells + Adjuvant: responders/cell lines; for Results Summary: 72 hours, n=5 cell lines; for Estimated Optimal Dosage Range in vitro / inhibition of all five patient-derived haemangioma cell lines: single agent. The protocol: as §3, with “The experimental protocol was performed as per Example 1. Briefly, cells were seeded in 96-well plates at a concentration” for “This model recapitulates the process”, “2500 cells/well in triplicate for each” for “locally administering the”, “and drug combination. Drug(s) were added” for “directly”, “each well 24 hours after seeding and re-dosed every 24 hours. Cell viability was assessed by MTT assay after 24, 48, and 72 hours. All plates were performed in triplicate. Drugs were assessed alone and in combination as described in Table 3.” for “the hemangioma microenvironment, which is representative of diffusing the drug through skin to reach the target cells.”

Series [7] relates to proliferating hemangioma cell lines (n=9). Put plainly: Example 6: single agents and combinations on nine primary cell lines, MTT, CompuSyn combination index. Type of series: cell-based, human. Conditions: 1 to 10 μM; 72 hours; n=9. The protocol: as §1
The plates are incubated overnight to allow cell adherence to the wells. The wells are photographed to confirm cell adherence and confluency. The appropriate drug(s) to be examined are subsequently added to the wells. After 24 hours, one set of plates (experimental and blank) is stopped. The media is aspirated from each well and stored frozen for possible future analyses. Media is added to the wells and an MTT determination is undertaken according to standard protocols. This is repeated at 48 and 72 hours.
as §2
A study was undertaken using combinations of ACE inhibitors, beta blockers and angiotensin II type 2 receptor blockers to inhibit proliferating hemangioma cells. […] Patient histories pertaining to each cell line is described in Table 5.
The experimental protocol was performed as per Example 1. Briefly, cells were seeded in 96-well plates at concentrations of 2500 cells/well in triplicate for each drug and drug combination. Drug(s) were added to each well 24 hours after seeding and re-dosed every 24 hours. Cell viability was assessed by MTT assay after 24, 48, and 72 hours. All plates were performed in triplicate. Drugs were assessed alone and in combination, as described in Table 6. Propranolol was used as a model beta blocker, cilazapril as a model ACE inhibitor, and SMM02 (L-159686) as a model AT2Ri. Synergy was measured using the CompuSyn open-source software protocol for quantifying synergism and antagonism that uses the median-effect equation and mass-action laws to generate a combination index (www.compusyn.com). Synergism, additive effects and antagonism are defined as a CI<1, CI=1, and CI>1, respectively.

Series [8] concerns the target ACE (Homo sapiens, UniProt P12821). Conditions: enzyme source not given; cited from earlier work.
For series [9] the following is noted: cited from earlier work.
The conditions of series [10]: cited from earlier work. This is another data set of the same source.
For series [11] the following is noted: cited from earlier work. This is another data set of the same source.
The conditions of series [12]: in words; cited from earlier work.
Series [13] concerns proliferating IH. Conditions: topical 0.5% solution or gel; cited from earlier work.

The inhibition is how much of the control response was suppressed. A word on the IC50: it is the midpoint of a concentration-inhibition curve. Broadly, the Log P is a log measure of how a compound divides between an organic and an aqueous phase. As usually defined, the log P is the decadic logarithm of the partition coefficient of the neutral form, usually between octanol and water. As a reminder, the pKa is the negative logarithm of the acid dissociation constant. As usually defined, the Solubility is the dissolved amount per volume that the medium holds.

Each structure is given as a SMILES string. Values after ≈ are worked out from the molar mass of the structure shown. “Also recorded” adds a separate entry of the source. Like-named read-outs stand apart in the source and are kept apart here.

Sequence of ACE (P12821 30-1306, species assumed): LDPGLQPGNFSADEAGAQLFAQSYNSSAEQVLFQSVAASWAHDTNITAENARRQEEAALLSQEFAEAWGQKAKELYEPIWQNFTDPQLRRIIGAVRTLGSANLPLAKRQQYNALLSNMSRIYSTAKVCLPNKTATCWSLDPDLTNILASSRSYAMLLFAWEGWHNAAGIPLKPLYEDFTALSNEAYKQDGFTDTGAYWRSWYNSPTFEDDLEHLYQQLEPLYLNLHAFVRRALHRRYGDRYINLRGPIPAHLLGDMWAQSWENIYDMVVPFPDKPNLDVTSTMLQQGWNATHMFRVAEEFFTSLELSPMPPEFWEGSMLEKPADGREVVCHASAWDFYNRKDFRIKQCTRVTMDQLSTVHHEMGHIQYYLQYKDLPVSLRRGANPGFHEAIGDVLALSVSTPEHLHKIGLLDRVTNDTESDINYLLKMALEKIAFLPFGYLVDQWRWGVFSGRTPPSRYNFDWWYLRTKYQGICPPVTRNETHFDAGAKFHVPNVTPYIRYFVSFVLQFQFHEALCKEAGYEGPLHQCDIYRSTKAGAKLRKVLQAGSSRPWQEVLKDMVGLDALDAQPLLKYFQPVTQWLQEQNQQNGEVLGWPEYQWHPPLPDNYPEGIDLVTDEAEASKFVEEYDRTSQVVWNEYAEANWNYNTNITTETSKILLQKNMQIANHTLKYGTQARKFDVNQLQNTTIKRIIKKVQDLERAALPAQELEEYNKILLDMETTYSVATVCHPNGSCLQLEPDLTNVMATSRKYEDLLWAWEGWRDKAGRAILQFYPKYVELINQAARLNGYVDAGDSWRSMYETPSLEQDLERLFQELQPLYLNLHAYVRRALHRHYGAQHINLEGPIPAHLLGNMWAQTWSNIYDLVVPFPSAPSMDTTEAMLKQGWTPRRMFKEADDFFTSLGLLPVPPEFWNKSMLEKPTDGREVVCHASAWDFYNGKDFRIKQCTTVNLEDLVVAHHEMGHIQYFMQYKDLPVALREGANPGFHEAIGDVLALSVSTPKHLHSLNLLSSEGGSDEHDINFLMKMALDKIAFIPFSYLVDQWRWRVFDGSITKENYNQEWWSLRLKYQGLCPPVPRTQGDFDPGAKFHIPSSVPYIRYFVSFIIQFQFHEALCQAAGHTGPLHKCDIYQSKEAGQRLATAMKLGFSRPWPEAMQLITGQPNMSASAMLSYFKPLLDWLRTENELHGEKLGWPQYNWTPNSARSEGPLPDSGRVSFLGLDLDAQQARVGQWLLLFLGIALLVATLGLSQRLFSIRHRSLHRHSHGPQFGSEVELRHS

Turning to `CC(C)NCC(O)COc1cccc2ccccc12` (racemic) [(±) Propranolol, Propranolol], in series [1], the “Results Summary” value is “Responder”, the inhibition at 1 µM is less than 0% and the inhibition at 10 µM was determined as 47.5%. Besides, the “patients treated showing an improvement” value in series [2] (oral low dose, within 5 weeks) is listed as “approximately 88%”. Also, in series [2] (oral, overall), the patients successfully treated entry is “approximately 60%”. For the same compound, the “clinical improvement versus captopril” value in [3] is “significantly better and faster”. For the same compound, in series [4], the good response is listed as 57-59%, the “good to modest response rates” value was 75-90%, the modest response is reported as 26-33% and the no response is 10-15%.
Take `CCOC(=O)[C@H](CCc1ccccc1)N[C@H]1CCCN2CCC[C@@H](C(=O)O)N2C1=O` [Cilazapril]: the “inhibitory effect on haemangioma cell proliferation” value in [5] is “diminishes over time”. Besides, the “increase in the inhibition of haemangioma cell proliferation compared to timolol” value in series [5] (24 hours) was found to be 7 fold. Also, the “Individual Responders at 72 Hours with ≥30% Inhibition vs. Cells + Adjuvant” value in series [6] (1 μM) was 1 μM - 1/5. Further, in series [6] (10 μM), the “Individual Responders at 72 Hours with ≥30% Inhibition vs. Cells + Adjuvant” value was 10 μM - 4/5. Besides, in [6], the “Results Summary” value is given as “Responder”, the “Estimated Optimal Dosage Range in vitro” value is 1 to 10 µM and the “inhibition of all five patient-derived haemangioma cell lines” value is recorded as “significantly inhibited”. The “dose-response across all cell lines” value in [7] is on record as “typical dose-response”. Also, the “inhibition of proliferating hemangioma cells” value in [1] (1 μM and 10 μM) was “good and similar level of inhibition”. Besides, in series [1], the “Results Summary” value is listed as “Responder”, the inhibition at 1 µM came to 4.35% and the inhibition at 10 µM is 60.5%. In series [8], the IC50 is 4 nM. The “Log P” value in series [9] (Table 1) is reported as 0.8. In [9], the “log P” value is 0.8. For the same compound, the pKa in [10] is given as 3.4. Also, the pKa in series [10] (second value) is given as 6.5. In addition, the Solubility in series [11] was 5000 µg/mL (≈ 12 mM). Moreover, in [12], the “Half life: short or long acting” value is on record as “Long acting”.
For the compound `CC(C)(C)NC[C@H](O)COc1nsnc1N1CCOCC1` [Timolol], the “inhibitory effect on haemangioma cell proliferation” value in [5] was “little effect; also recorded: consistent”. Also, the “Individual Responders at 72 Hours with ≥30% Inhibition vs. Cells + Adjuvant” value in series [6] (1 μM) is 1 μM - 0/5. Moreover, the “Individual Responders at 72 Hours with ≥30% Inhibition vs. Cells + Adjuvant” value in series [6] (10 μM) was 10 μM - 4/5. In [6], the “Results Summary” value is “Responder”, the “Estimated Optimal Dosage Range in vitro” value is 1 to 10 µM and the “inhibition of all five patient-derived haemangioma cell lines” value was “significantly inhibited”. Also, in series [1], the “Results Summary” value is “Responder”, the inhibition at 1 µM stood at 11.1% and the inhibition at 10 µM is 57%. In addition, the “clinical response” value in series [13] is reported as “clinically beneficial response”.
